Measurements published in patent publication US9216983B2, “Dihydroorotate dehydrogenase inhibitors with selective anti-malarial activity” (BOARD OF REGENTS, UNIVERSITY OF TEXAS SYSTEM, priority 2007, dated 2015).
Read-outs that look alike come from different tables or passages of the source.

Columns and labels:
PfDHODH = biological target: T1, PfDHODH (Plasmodium falciparum, UniProt Q08210); test: biochemical
T1 sequence (Q08210 24-569): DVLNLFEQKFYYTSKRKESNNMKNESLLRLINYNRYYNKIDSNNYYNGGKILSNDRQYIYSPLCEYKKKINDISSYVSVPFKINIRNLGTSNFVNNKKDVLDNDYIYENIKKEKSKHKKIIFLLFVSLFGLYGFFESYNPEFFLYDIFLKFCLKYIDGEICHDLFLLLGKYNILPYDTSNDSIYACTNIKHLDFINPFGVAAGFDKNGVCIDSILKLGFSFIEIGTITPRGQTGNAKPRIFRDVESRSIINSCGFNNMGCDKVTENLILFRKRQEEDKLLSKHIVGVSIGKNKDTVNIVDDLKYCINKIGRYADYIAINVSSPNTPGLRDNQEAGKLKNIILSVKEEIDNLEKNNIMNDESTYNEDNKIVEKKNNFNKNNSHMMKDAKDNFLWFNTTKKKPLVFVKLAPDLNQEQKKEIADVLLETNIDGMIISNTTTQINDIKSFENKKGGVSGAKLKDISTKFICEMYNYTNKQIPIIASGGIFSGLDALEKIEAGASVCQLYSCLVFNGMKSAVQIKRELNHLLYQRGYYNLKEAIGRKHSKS
Protocol: (§1) Briefly, the assay solution contained 100 mM HEPES, pH 8.0, 150 mM NaCl, 10% glycerol, 0.1% Triton X-100, 20 micro molar COQD (coenzyme QD), 200 micro molar L-dihydroorotate, and 120 micro molar DCIP. Reactions are initiated by addition of enzyme to a final concentration in the range of about […] to about 50 nM while maintaining the temperature of a circulating water bath at 25° C.
(§2) Assay solutions were prepared as discussed above, except that DCIP is not present and the solution is depleted of oxygen by the inclusion of an oxidase/reductase system, such as, 0.1 mg/ml of glucose oxidase, 0.02 mg/ml catalase and 50 mM glucose. The data obtained is fitted to equation 1, to determine the IC50 values of the representative compounds.

hDHODH = hDHODH (Homo sapiens, UniProt Q02127); test: DHODH enzyme inhibition assay, hDHODH; assay type: biochemical; details: Table 4, IC50 class; read-out: hDHODH
Chain of hDHODH (Q02127 whole entry): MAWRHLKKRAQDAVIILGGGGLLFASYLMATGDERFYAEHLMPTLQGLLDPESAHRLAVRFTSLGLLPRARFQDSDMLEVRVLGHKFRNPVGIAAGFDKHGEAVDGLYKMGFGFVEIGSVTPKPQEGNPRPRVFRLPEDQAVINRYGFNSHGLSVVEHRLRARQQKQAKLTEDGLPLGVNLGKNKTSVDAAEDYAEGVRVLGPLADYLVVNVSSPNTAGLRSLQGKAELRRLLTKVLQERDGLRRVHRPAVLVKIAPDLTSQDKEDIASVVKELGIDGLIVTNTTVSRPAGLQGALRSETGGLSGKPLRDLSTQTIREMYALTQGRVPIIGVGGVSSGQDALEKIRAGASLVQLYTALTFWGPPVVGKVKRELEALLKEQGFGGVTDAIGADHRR
Protocol: as §1, §2

PbDHODH = PbDHODH (Plasmodium berghei, UniProt A0A509AEH5); test: DHODH enzyme inhibition assay, PbDHODH; assay type: biochemical, P. berghei; details: Table 4, IC50 class
Chain of PbDHODH (A0A509AEH5 entry or part of it): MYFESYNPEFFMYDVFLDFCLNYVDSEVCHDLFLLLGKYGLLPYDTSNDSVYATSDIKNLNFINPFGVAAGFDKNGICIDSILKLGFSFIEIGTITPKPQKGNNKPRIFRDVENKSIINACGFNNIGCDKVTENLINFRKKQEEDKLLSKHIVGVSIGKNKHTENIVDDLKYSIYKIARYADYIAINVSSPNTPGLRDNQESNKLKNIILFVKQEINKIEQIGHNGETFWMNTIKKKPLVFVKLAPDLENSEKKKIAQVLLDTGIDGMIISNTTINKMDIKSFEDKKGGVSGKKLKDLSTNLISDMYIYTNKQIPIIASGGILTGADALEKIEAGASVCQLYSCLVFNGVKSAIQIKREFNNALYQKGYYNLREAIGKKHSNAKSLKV
Protocol: as §1, §2

P. falciparum = test: Inhibition of cell proliferation, 3H-hypoxanthine uptake in P. falciparum-infected erythrocytes; assay type: cell-based; details: Plasmodium falciparum, 3D7, Erythrocyte, Table 5, 3D7 cells; read-out: EC50 P. falciparum 3D7 cells
Excerpt: [formula] II. In Vitro Evaluation of Compound Efficacy on the Human Malaria Parasite, P. falciparum.

[1] = Table 4, IC50 class, read-out: PfDHODH
[2] = Table 5, read-out: PfDHODH IC50

SMILES	IC50 (PfDHODH; [1]) [µM]	IC50 (hDHODH) [µM]	IC50 (PbDHODH; PbDHODH) [µM]	IC50 (PfDHODH; [2]) [µM]	also measured
Cc1cc(Nc2ccc(-c3ccccc3)cc2)n2ncnc2n1	2 to 10				
Cc1cc(Nc2cccc(F)c2)n2ncnc2n1	2 to 10	> 10			IC50 (PbDHODH; read-out: PbDHODH): > 10 µM
Cc1cc(Nc2ccc(F)cc2)n2ncnc2n1	> 10		> 10		
Cc1cc(Nc2ccccc2F)n2ncnc2n1	> 10		> 10		
Cc1cc(Nc2cccc(C(F)(F)F)c2)n2ncnc2n1	> 10	> 10			IC50 (PbDHODH; read-out: PbDHODH): > 10 µM
Cc1cc(NCCCc2ccccc2)n2ncnc2n1	> 10	> 10			IC50 (PbDHODH; read-out: PbDHODH): > 10 µM
Cc1cc(Nc2ccc(C#N)c(C(F)(F)F)c2)n2ncnc2n1		2 to 10	> 10		IC50 (PfDHODH; PfDHODH, Table 4, IC50 class): 2 to 10 µM
Cc1cc(Nc2ccc(C)c(F)c2)n2ncnc2n1	< 2	> 10			IC50 (PbDHODH; read-out: PbDHODH): 2 to 10 µM
Cc1cc(Nc2ccc(Cc3ccccc3)cc2)n2ncnc2n1	< 2	2 to 10			IC50 (PbDHODH; read-out: PbDHODH): > 10 µM
Cc1ccc(Nc2cc(C)nc3ncnn23)c(F)c1	> 10	> 10			IC50 (PbDHODH; read-out: PbDHODH): > 10 µM
Cc1cc(Nc2ccc3[nH]c(C(F)(F)F)nc3c2)n2ncnc2n1	> 10	> 10			IC50 (PbDHODH; read-out: PbDHODH): > 10 µM
Cc1cc(Nc2ccc(OC(F)(F)F)cc2)n2ncnc2n1	< 2	> 10			IC50 (PbDHODH; read-out: PbDHODH): > 10 µM
Cc1cc(Nc2ccc(Cl)cc2)n2ncnc2n1	< 2	> 10			IC50 (PbDHODH; read-out: PbDHODH): 2 to 10 µM
Cc1cc(Nc2ccc(C#N)cc2)n2ncnc2n1	2 to 10				
Cc1cc(Nc2ccccc2C(F)(F)F)n2ncnc2n1	> 10		> 10		
Cc1cc(Nc2ccccc2C#N)n2ncnc2n1	> 10		> 10		
Cc1cc(Nc2ccccc2C)n2ncnc2n1	> 10		> 10		
Cc1cccc(Nc2cc(C)nc3ncnn23)c1	2 to 10		> 10		
Cc1cc(Nc2ccccc2Cl)n2ncnc2n1	> 10		> 10		
Cc1ccc(Nc2cc(C)nc3ncnn23)cc1	2 to 10		> 10		
COc1ccc(Nc2cc(C)nc3ncnn23)cc1	< 2	> 10			IC50 (PbDHODH; read-out: PbDHODH): < 2 µM

SMILES	IC50 (PfDHODH; [1]) [µM]	IC50 (hDHODH) [µM]	IC50 (PbDHODH; PbDHODH) [µM]	IC50 (PfDHODH; [2]) [µM]	also measured
Cc1cc(Nc2ccc([N+](=O)[O-])cc2)n2ncnc2n1	2 to 10		2 to 10		
Cc1cc(Nc2ccc(Br)cc2)n2ncnc2n1	2 to 10		> 10		
CCc1ccc(Nc2cc(C)nc3ncnn23)cc1	< 2	> 10	2 to 10		
CCCc1ccc(Nc2cc(C)nc3ncnn23)cc1	< 2	> 10	2 to 10		
Cc1cc(Nc2ccc(C(C)C)cc2)n2ncnc2n1	< 2	> 10	< 2		
CCCCc1ccc(Nc2cc(C)nc3ncnn23)cc1	< 2	> 10	2 to 10		
Cc1cc(Nc2cc(F)ccc2F)n2ncnc2n1	> 10		> 10		
Cc1cc(Nc2c(F)cccc2F)n2ncnc2n1	> 10		> 10		
Cc1cc(Nc2ccc(F)c(F)c2F)n2ncnc2n1	> 10	> 10			IC50 (PbDHODH; read-out: PbDHODH): > 10 µM
Cc1cc(Nc2cccc(F)c2F)n2ncnc2n1	> 10		> 10		
Cc1cc(Nc2cc(F)c(F)cc2F)n2ncnc2n1	> 10		> 10		
Cc1cc(Nc2c(F)cc(F)cc2F)n2ncnc2n1	> 10	> 10			IC50 (PbDHODH; read-out: PbDHODH): > 10 µM
Cc1cc(Nc2cc(F)cc(F)c2)n2ncnc2n1	2 to 10	> 10			IC50 (PbDHODH; read-out: PbDHODH): > 10 µM
Cc1cc(Nc2ccc(F)c(F)c2)n2ncnc2n1	2 to 10		2 to 10		
C=Cc1ccc(Nc2cc(C)nc3ncnn23)cc1			2 to 10		
CCCCCc1ccc(Nc2cc(C)nc3ncnn23)cc1	< 2		> 10		
CCCCCCc1ccc(Nc2cc(C)nc3ncnn23)cc1	2 to 10		> 10		
CCCCCCCc1ccc(Nc2cc(C)nc3ncnn23)cc1	> 10		> 10		
CCCCCCCCc1ccc(Nc2cc(C)nc3ncnn23)cc1	> 10		> 10		
Cc1cc(Nc2ccc(C)c(C(F)(F)F)c2)n2ncnc2n1	< 2	> 10			IC50 (PbDHODH; read-out: PbDHODH): 2 to 10 µM
Cc1cc(Nc2ccc(C)c(C)c2)n2ncnc2n1	< 2	> 10			IC50 (PbDHODH; read-out: PbDHODH): 2 to 10 µM

SMILES	IC50 (PfDHODH; [1]) [µM]	IC50 (hDHODH) [µM]	IC50 (PbDHODH; PbDHODH) [µM]	IC50 (PfDHODH; [2]) [µM]	also measured
Cc1cc(Nc2ccc(Cl)c(C(F)(F)F)c2)n2ncnc2n1	< 2				IC50 (PbDHODH; read-out: PbDHODH): < 2 µM
Cc1cc(Nc2ccc(C(F)(F)F)c(F)c2)n2ncnc2n1	< 2	> 10			IC50 (PbDHODH; read-out: PbDHODH): < 2 µM
Cc1cc(Nc2cc(C(F)(F)F)cc(C(F)(F)F)c2)n2ncnc2n1	> 10	> 10			IC50 (PbDHODH; read-out: PbDHODH): > 10 µM
Cc1cc(Nc2ccc3c(c2)OCO3)n2ncnc2n1	< 2	> 10	> 10		
Cc1cc(Nc2ccc(Br)c(C(F)(F)F)c2)n2ncnc2n1	< 2	> 10			IC50 (PbDHODH; read-out: PbDHODH): < 2 µM
Cc1cc(Nc2ccc(C(C)(C)C)cc2)n2ncnc2n1	< 2		< 2		
Cc1cc(Nc2ccc(N(C)C)cc2)n2ncnc2n1	< 2		> 10		
Cc1cc(Nc2c(F)c(F)cc(F)c2F)n2ncnc2n1	> 10		> 10		
Cc1cc(Nc2c(F)c(F)c(F)c(F)c2F)n2ncnc2n1	> 10		> 10		
Cc1cc(Nc2ccc(Br)c(C)c2)n2nc(C)nc2n1				0.0706	EC50 (P. falciparum): 0.08 to 0.12 µM
CCc1nc2nc(C)cc(Nc3cccc(C(F)(F)F)c3)n2n1				1.17	
CCCc1nc2nc(C)cc(Nc3cccc(Cl)c3)n2n1				0.247	
Cc1cc(Nc2ccc(C)c(C)c2)n2nc(C)nc2n1				0.0814	
Cc1cc(Nc2ccc(Cl)c(Cl)c2)n2nc(C)nc2n1				0.0752	
CCc1nc2nc(C)cc(Nc3ccc(OC)cc3)n2n1				2.25	
CCc1nc2nc(C)cc(Nc3ccc(I)cc3)n2n1				0.0379	
Cc1cc(Nc2cccc(C(F)(F)F)c2)n2nc(C)nc2n1				0.285	
Cc1cc(Nc2ccc(Cl)c(C)c2)n2nc(C)nc2n1				1.39	
CCCc1nc2nc(C)cc(Nc3ccc(C)c(Cl)c3)n2n1				0.132	
CCc1cccc(Nc2cc(C)nc3ncnn23)c1				0.641	
Cc1cc(Nc2ccc(C)c(Cl)c2)n2ncnc2n1				0.24	

SMILES	IC50 (PfDHODH; [1]) [µM]	IC50 (hDHODH) [µM]	IC50 (PbDHODH; PbDHODH) [µM]	IC50 (PfDHODH; [2]) [µM]	also measured
COc1ccc(Nc2cc(C)nc3ncnn23)cc1Cl				0.362	
CCc1nc2nc(C)cc(Nc3ccc(C)c(F)c3)n2n1				0.0663	
CCCc1nc2nc(C)cc(Nc3ccc(C)c(F)c3)n2n1				0.277	
CCc1nc2nc(C)cc(Nc3ccc(Br)cc3F)n2n1				0.395	
CCc1nc2nc(C)cc(Nc3ccc(F)c(Cl)c3)n2n1				0.145	
Cc1cc(Nc2ccc(C)c(F)c2)n2nc(C)nc2n1				0.629	
Cc1cc(Nc2ccc(I)cc2)n2ncnc2n1				0.151	
Cc1cc(Nc2ccc(OCc3ccccc3)cc2)n2ncnc2n1				6.3 ± 0.95	
C#Cc1ccc(Nc2cc(C)nc3ncnn23)cc1				0.99 ± 0.18	
Cc1cc(Nc2ccc(N3CCOCC3)cc2)n2ncnc2n1				> 100	
Cc1cc(Nc2ccc3c(c2)CCCC3)n2ncnc2n1				0.05 ± 0.008	
Cc1cc(Nc2ccc3c(c2)CCC3)n2ncnc2n1				0.116 ± 0.03	
Cc1cc(Nc2ccc(S(F)(F)(F)(F)F)cc2)n2ncnc2n1				0.117 ± 0.01	
Cc1cc(Nc2cccc(Cl)c2)n2ncnc2n1 [drawing 35]					IC50 (PfDHODH; PfDHODH, Table 4, IC50 class): < 2 µM
Cc1cc(Nc2ccc(F)c(C)c2)n2ncnc2n1 [drawing 39]	2 to 10	2 to 10			IC50 (PbDHODH; read-out: PbDHODH): > 10 µM
Cc1cc(Nc2ccc(OC(F)F)cc2)n2ncnc2n1 [drawing 44]	< 2		> 10		
Cc1cc(Nc2ccc(C(F)(F)F)cc2)n2ncnc2n1 [drawing 93]					EC50 (P. falciparum): 0.33 ± 0.02 µM
COc1ccc(Nc2cc(C)nc3nc(C)nn23)cc1Cl [drawing 98]				0.375	
COc1ccc(Nc2cc(C)nc3nc(C)nn23)cc1Cl [drawing 99]				0.326	
Cc1cc(Nc2cccc(Cl)c2)n2ncnc2n1 [drawing 116]					IC50 (PfDHODH; PfDHODH IC50, Table 5): 0.566 µM
